Laboratory results: patent US5380729A, “12-hetero substituted 6,11-ethano-6,11-dihydrobenzo (b) quinolizinium salts and compositions and method of use thereof” (Sterling Winthrop Inc., priority 1993, dated 1995)

What was measured:
PCP recognition sites [1] = test: [3H]TCP Radioreceptor Assay (internal screen); format: binding, rat (male Sprague-Dawley; conditions: rat whole brain membranes, room temperature, 25 min; for Ki: ~1 nM [3H]TCP
Description: [^3 H]TCP Radioreceptor Assay (internal screen)
[^3 H]TCP binding to PCP recognition sites was performed as described by Vignon et al. Brain Research 1983, 280, 194°197. Male Sprague-Dawley rats were sacrificed by decapitation, and whole brains were homogenized in 10 volumes (wt/vol) of cold Tris-HCl buffer (50 mM, pH 7.7) using a Brinkmann Polytron (setting 6, 30 sec). The homogenate was centrifuged at 40,000×g for 10 min at 4° C. The supernatant was decanted, and the homogenization and centrifugation steps were repeated twice as described above. Following this, the pellet was resuspended in Tris-HCl (5 mM, pH 7.7) at a tissue concentration of 0.5°0.75 g/ml, and one ml aliquots were frozen at -70° C. until use. The binding characteristics for PCP recognition sites were not altered by the freezing of membrane suspensions.
On the day of the assay, membrane aliquots were thawed, resuspended in fresh 5 mM Tris-HCl buffer at a tissue concentration of 1 mg/ml, and stored on ice until use. Each assay tube contained 100 μl of [^3 H]TCP at a final concentration of approximately 1 nM, 100 μl of various concentrations of the compounds of interest, 500 μl of the tissue suspension and 300 of buffer to a final assay volume of 1 ml and a final protein concentration of 0.5 mg/tube. Non-specific binding was defined by addition of a final concentration of 100 μM PCP to blank tubes. All tubes were incubated at room temperature for 25 min before termination of the reaction by rapid filtration over Whatman GF/B glass fiber filters that had been presoaked in a solution of 0.5% polyethylenimine for at least 1 hr prior to use. Filters were washed with three 4 ml volumes of cold Tris buffer. Following addition of scintillation cocktail, the amount of bound radioactivity was determined by liquid scintillation spectrometry using a Beckman LS 5000TA liquid scintillation counter with an efficiency for tritium of approximately 55% . Inhibition constants (Ki values) were calculated using the EBDA/LIGAND program (McPherson, J. Pharmacol. Meth. 1985, 14, 213-228), purchased from Elsevier/Biosoft, Inc. Results are reported as Ki values or as a percent (%) inhibition of binding at 10

[2] = tested on: NMDA-induced neurotoxicity in cultured cortical neurons; test: Antagonism of NMDA-induced neurotoxicity in cultured neurons (LDH release); format: cell-based, mouse (Swiss-Webster); conditions: 500 μM NMDA, 30 minutes, LDH activity at 24 hours, mouse cortical neurons
Description: Antagonism of NMDA-induced Neurotoxicityin Cultured Neurons
Preparation of Cultured Cortical Neurons
Pregnant, Swiss-Webster mice were obtained from Taconic Farms (Germantown, New York) and sacrificed 16 days post conception. Fetuses were removed and placed in a sterile dish containing Hank's balanced salt solution (HBSS), pH 7.4. Brain cortices were dissected, meninges were removed, the tissue was minced and placed into a solution of HBSS containing 0.25% (w/v) trypsin at 37° C. for 15 minutes. Tissue was then triturated with a sterile pasteur pipet, diluted with minimal essential media (Gibco 330-1430), pH 7.4, supplemented with 10% horse serum, 10% fetal calf serum, 2 mM 1-glutamine, 21 mM d-glucose, 2.2 g/L sodium bicarbonate, 1000 u/ml penicillin, and 1,000 μg/ml streptomycin. Cells were plated onto Falcon primaria 96 well plates at a final density of 50,000 cells/well and incubated at 37° C. in the presence of 5% (v/v) carbon dioxide. After 5 days, plating media was replaced with maintenance media containing minimal essential media (Gibco 330- 1430), pH 7.4, supplemented with 10% horse serum, 10% 1-glutamine, 21 mM d-glucose, 2.2 g/l sodium bicarbonate,1,000 U/ml penicillin, 1,000 μg/ml streptomycin, and 10 μM cytosine arabinoside. On days 7 and 10, media was replaced with maintenance media as above lacking the cytosine arabinoside. Experiments were conducted on day 13.
Neuroprotection Assessment
Day 13 cultured cortical neurons were washed twice with minimal essential media, pH 7.4 and then exposed for 30 minutes to 500 μM N-methyl-D-aspartic acid (NMDA) with or without varying concentrations of test agents. Dizocilpine (MK-801) at a final concentration of 10 μM MK-801 was routinely included as a positive control. MK-801 and test agents were prepared in minimal essential media supplemented with 21 mM d-glucose and 2.2 g/L sodium bicarbonate (MEM). After 30 minutes, media was replaced with MEM alone. Exposure of neurons to test agents was limited to the NMDA treatment period. Twenty-four hours after removal of NMDA, an aliquot of media from each well was removed for assessment of cell injury by determining lactate dehydrogenase (LDH) activity by. the method of Wroblewski and LaDue Proc. Soc. Exp. Biol. Med. 1955, 90, 210-213. The results are expressed as an IC50 (in nM) value (concentration causing 50% inhibition) for the antagonism of NMDA--inducedneurotoxicity.

[3] = Comparison of separate enantiomers with the racemate (test not specified); conditions: (-)-enantiomer vs (+)-enantiomer or racemate
PCP recognition sites [4] = test: [3H]TCP Radioreceptor Assay (external screen); format: binding, rat (whole rat forebrain membranes); conditions: @ 10 μM; rat forebrain membranes; 25° C., 60 minutes
Description: Representative compounds of the invention were also tested in an external [^3 H]TCP radioreceptor assay using the following protocol:
[^3 H]TCP Radioreceptor Assay (external screen)
A procedure similar to that described above for the [^3 H]TCP radioreceptor assay (internal screen) was utilized except that the whole rat forebrain membranes were incubated at 25° C. for 60 minutes rather than at room temperature for 25 minutes, before termination of the reaction. The results are reported as a percent (%) inhibition of binding at 10 μM.

SMILES | IC50 [2] | Ki (PCP recognition sites [1]) | Percent inhibition, [3H]TCP (external screen) (PCP recognition sites [4]) | other results
CCOC1(OCC)C2c3ccccc3C([n+]3ccccc32)C1(C)C (single isomer, unassigned; (-)) [Example 12(c), (-)-12,12-diethoxy-13,13-dimethyl-6,11-ethano-6,11-dihydrobenzo[b]quinolizinium chloride. 1/2-7/4 hydrate] | 26 nM | – | – | Ki (PCP recognition sites [1]; hydrate): 4.03 nM; potency compared to the (+)-enantiomer (Example 13(c)) or the racemate (Example 2) [3]: more potent; side effects compared to the (+)-enantiomer (Example 13(c)) or the racemate (Example 2) [3]: fewer side effects
CCOC1(OCC)CC2c3ccccc3C1(C)c1cccc[n+]12.[O-][Cl+3]([O-])([O-])[O-] (centres unmarked) [63(c), 11-Methyl-12,12-diethoxy-6,11-ethano-6,11-dihydrobenzo[b]quinolizinium perchlorate] | – | 9300 nM | 0% | –
CCOC1(OCC)C2c3c(C)ccc(C)c3C(C1C)[n+]1ccccc12.[O-][Cl+3]([O-])([O-])[O-] (centres unmarked) [63(e), 7,10-Dimethyl-12,12-diethoxy-13-methyl-6,11-ethano-6,11-dihydrobenzo[b]quinolizinium perchlorate] | – | 255 nM | 65% | –
CCOC1(OCC)CC2c3c(C)cccc3C1c1cccc[n+]12.[O-][Cl+3]([O-])([O-])[O-] (centres unmarked) [63(f), 7-Methyl-12,12-diethoxy-6,11-ethano-6,11-dihydrobenzo[b]quinolizinium perchlorate] | – | 7430 nM | 34% | –
CCOC1(OCC)CC2c3ccc(C)cc3C1c1cccc[n+]12.[O-][Cl+3]([O-])([O-])[O-] (centres unmarked) [63(g), 9-Methyl-12,12-diethoxy-6,11-ethano-6,11-dihydrobenzo[b]quinolizinium perchlorate] | – | – | 0% | Percent inhibition, [3H]TCP (internal screen) (PCP recognition sites [1]; @ 10 μM): 68%
CCOC1(OCC)CC2c3c(C)ccc(C)c3C1c1cccc[n+]12.[O-][Cl+3]([O-])([O-])[O-] (centres unmarked) [63(h), 7,10-Dimethyl-12,12-diethoxy-6,11-ethano-6,11-dihydrobenzo[b]quinolizinium perchlorate] | – | – | 52% | –
CCOC1(OCC)CC2c3cc(C)c(C)cc3C1c1cccc[n+]12.[O-][Cl+3]([O-])([O-])[O-] (centres unmarked) [63(i), 8,9-Dimethyl-12,12-diethoxy-6,11-ethano-6,11-dihydrobenzo[b]quinolizinium perchlorate] | – | 2260 nM | 35% | –
CCOC1(OCC)C2c3ccccc3C([n+]3ccccc32)C1(C)C (centres unmarked) [Example 2, 12,12-diethoxy-13,13-dimethyl-6,11-ethano-6,11-dihydrobenzo[b]quinolizinium chloride-1/4 H2 O] | – | 5.3 nM | – | IC50 ([2]; Cortical neurone): 30 to 50 nM
CCOC1(OCC)C2c3c(Br)cccc3C([n+]3ccccc32)C1(C)C.[O-][Cl+3]([O-])([O-])[O-] (centres unmarked) [Example 29, 6,11-ethano-12,12-diethoxy-13,13-dimethyl-10-bromo-6,11-dihydrobenzo[b]quinolizinium perchlorate] | 1040 nM | 132 nM | – | –
CCOC1(OCC)C2c3cc(Br)ccc3C([n+]3ccccc32)C1(C)C.[O-][Cl+3]([O-])([O-])[O-] (centres unmarked) [Example 35, 6,11-ethano-12,12-diethoxy-13,13-dimethyl-9-bromo-6,11-dihydrobenzo[b]quinolizinium perchlorate] | 173 nM | 61.5 nM | – | –
CCOC1(OCC)C2c3ccccc3C(C1C)[n+]1ccccc12.[O-][Cl+3]([O-])([O-])[O-] (centres unmarked) [Example 38, 6,11-ethano-12,12-diethoxy-13-methyl-6,11-dihydrobenzo[b]quinolizinium perchlorate] | 1160 nM | 33.8 nM | – | –
CCCOC1(OCCC)C2c3ccccc3C([n+]3ccccc32)C1(C)C.[O-][Cl+3]([O-])([O-])[O-] (centres unmarked) [Example 39, 6,11-ethano-12,12-dipropoxy-13,13-dimethyl-6,11-dihydrobenzo[b]quinolizinium perchlorate] | 85 nM | 11.5 nM | – | –
CCOC1(OCC)C2c3cc([N+](=O)[O-])ccc3C([n+]3ccccc32)C1(C)C.[O-][Cl+3]([O-])([O-])[O-] (centres unmarked) [Example 46, 6,11-ethano-12,12-diethoxy-13,13-dimethyl-9-nitro-6,11-dihydrobenzo[b]quinolizinium perchlorate] | 15300 nM | 2760 nM | – | –
CCOC1(OCC)C2(C)c3ccccc3C([n+]3ccccc32)C1(C)C.[O-][Cl+3]([O-])([O-])[O-] (centres unmarked) [Example 51, 6,11-ethano-12,12-diethoxy-13,13-dimethyl-11-methyl-6,11-dihydrobenzo[b]quinolizinium perchlorate] | – | 11.3 nM | – | IC50 ([2]; Cortical neurone): 32.4 nM
